{"source": "paper PMC10781691", "about": "“Vertical pathway inhibition of receptor tyrosine kinases and BAD with synergistic efficacy in triple negative breast cancer” (NPJ Precision Oncology, 2024)", "key": {"Flt-3": {"tested_on": "Flt-3", "design": "method as in SelleckChem", "details": "ref SelleckChem; cited from earlier work"}, "VEGFR2": {"tested_on": "VEGFR2", "details": "ref SelleckChem; read-out: IC50 VEGFR2; cited from earlier work"}, "Axl": {"tested_on": "Axl", "design": "method as in SelleckChem", "details": "ref SelleckChem; cited from earlier work"}, "c-Met": {"tested_on": "c-Met", "details": "cited from earlier work"}, "Ron": {"tested_on": "Ron", "design": "method as in SelleckChem", "details": "ref SelleckChem; cited from earlier work"}, "USTC-1 PDX": {"tested_on": "USTC-1 PDX", "assay": "TNBC patient-derived xenograft", "assay_type": "in vivo, NOD/SCID mice", "description": "(§1) The effect of drug treatments on two patient-derived xenograft (PDX) models of TNBC, USTC-0 and USTC-1 were next examined. The use of the USTC-1 PDX was previously reported.\n(§2) In vivo bioluminescent imaging was performed to determine the incidence and metastatic burden of luciferase-labeled 4T1 cells. Mice were injected i.p. with 10 mg/ml of D-luciferin (Gold Biotechnology, MO, USA) and imaged using a PerkinElmer IVIS Spectrum system. PDX were generated as previously described by transplanting fresh fragments orthotopically into 8-week-old female nonobese diabetic (NOD)/severe combined immunodeficient (SCID) mice (Beijing Vital River Laboratory Animal Technology Co., Beijing, China) (P1, passage 1)[40]. The P1 xenografts were then fragmented, digested into single-cell suspension and implanted into mammary fat pad (100 μL PBS containing growth factor reduced 50% Matrigel) of NOD/SCID mice. Once orthotopic xenografts reached an approximate size of 100 mm^3, the mice were randomly divided into three groups (n = 8) for single drug studies and six groups (n = 6) for combination studies and Kaplan-Meier (KM) analyses. […] Animal body weight and xenograft size were measured daily using an electronic balance and a digital caliper, respectively. Xenograft volume (mm^3) was calculated by using the formula: 0.52 × length × [width]^2. Complete response (CR) was achieved if the average xenograft volume for the treatment group was unable to be determined for two or more consecutive measurements. Partial response (PR) was achieved if the average xenograft volume reduced to <50 mm^3 for two or more consecutive measurements. After 3-week drug treatment, all mice were sacrificed by CO2 inhalation. Tumor and vital organs were weighed and isolated for further analysis. IHC analysis of xenograft histology sections and quantitative polymerase chain reaction (qPCR) were performed as previously described. […] For PDX, xenograft growth was monitored daily by measurement of the xenograft volume until mice humane endpoint ( ~ 1000 mm^3)."}, "USTC-0 PDX": {"tested_on": "USTC-0 PDX", "assay": "TNBC patient-derived xenograft", "assay_type": "in vivo, NOD/SCID mice", "description": "as §1, §2"}, "[1]": {"tested_on": "MAPK and PI3K/AKT pathways", "assay": "Western blot of PI3K/AKT and MAPK pathway proteins", "assay_type": "cell-based, human", "description": "Next, western blot analyses were performed to determine potential alteration in expression or activity of the target proteins along the MAPK and PI3K/AKT pathways. […] . […] CI analysis method."}, "MDA-MB-231 xenografts": {"tested_on": "MDA-MB-231 xenografts", "assay": "Orthotopic xenograft, combination study", "assay_type": "in vivo, BALB/c-nude mice", "description": "In vivo bioluminescent imaging was performed to determine the incidence and metastatic burden of luciferase-labeled 4T1 cells. Mice were injected i.p. with 10 mg/ml of D-luciferin (Gold Biotechnology, MO, USA) and imaged using a PerkinElmer IVIS Spectrum system. PDX were generated as previously described by transplanting fresh fragments orthotopically into 8-week-old female nonobese diabetic (NOD)/severe combined immunodeficient (SCID) mice (Beijing Vital River Laboratory Animal Technology Co., Beijing, China) (P1, passage 1)[40]. The P1 xenografts were then fragmented, digested into single-cell suspension and implanted into mammary fat pad (100 μL PBS containing growth factor reduced 50% Matrigel) of NOD/SCID mice. Once orthotopic xenografts reached an approximate size of 100 mm^3, the mice were randomly divided into three groups (n = 8) for single drug studies and six groups (n = 6) for combination studies and Kaplan-Meier (KM) analyses. […] Animal body weight and xenograft size were measured daily using an electronic balance and a digital caliper, respectively. Xenograft volume (mm^3) was calculated by using the formula: 0.52 × length × [width]^2. Complete response (CR) was achieved if the average xenograft volume for the treatment group was unable to be determined for two or more consecutive measurements. Partial response (PR) was achieved if the average xenograft volume reduced to <50 mm^3 for two or more consecutive measurements. After 3-week drug treatment, all mice were sacrificed by CO2 inhalation. Tumor and vital organs were weighed and isolated for further analysis. IHC analysis of xenograft histology sections and quantitative polymerase chain reaction (qPCR) were performed as previously described.\nData represent means ± SD. *P < 0.05, **P < 0.01, and ***P < 0.001.\nData represent means ± SD (n=6). *P < 0.05, **P\n< 0.01, and ***P < 0.001.\nAbbreviations: ALT/GOT, alanine\naminotransferase/ glutamic oxaloacetic transaminase; AST/GPT, aspartate aminotransferase/\nglutamic pyruvic transaminase; CREA, creatinine; UREA, urea; and ALB, albumin. Data\nrepresent means ± SD. *P < 0.05, **P < 0.01, and ***P < 0.001."}, "4T1-luciferase cells": {"tested_on": "4T1-luciferase cells", "details": "4T1-luciferase metastasis model", "description": "Since metastasis is the primary contributor to mortality and poor prognosis for TNBC patients, the therapeutic potential of NCK, TKIs or combined NCK-TKI treatment on TNBC metastasis was further evaluated with an experimental lung metastasis model.\nas §2\nluciferase cell generated metastasis model. Scale bar, 20 µm. (C) Animal weight of each\ntreatment group was indicated. (D) Changes in relative lung, liver, spleen, heart and kidney\n(CRI) or combinations during the study at day 9."}, "BT549 cells": {"tested_on": "BT549 cells", "assay": "Foci formation (crystal violet)", "details": "BT549, 5 μM each"}, "MDA-MB-231 cells": {"tested_on": "MDA-MB-231 cells", "assay": "Foci formation (crystal violet)", "details": "MDA-MB-231, 5 μM each"}, "[2]": {"tested_on": "BAD phosphorylation at Ser99", "assay": "Western blot of BAD phosphorylation at Ser99 in TNBC cells", "assay_type": "cell-based, human", "details": "MDA-MB-231 and BT549 cells, 1 μM"}, "MEK/ERK": {"tested_on": "MEK/ERK", "design": "method as in SelleckChem", "details": "ref SelleckChem; cited from earlier work"}, "ErbB2": {"tested_on": "ErbB2", "design": "method as in SelleckChem", "details": "ref SelleckChem; cited from earlier work"}, "Src": {"tested_on": "Src", "design": "method as in SelleckChem", "details": "ref SelleckChem; cited from earlier work"}, "FGFR1": {"tested_on": "FGFR1", "details": "read-out: IC50 FGFR1; ref SelleckChem; cited from earlier work"}, "VEGFR3": {"tested_on": "VEGFR3", "design": "method as in SelleckChem", "details": "ref SelleckChem; cited from earlier work"}, "c-Kit": {"tested_on": "c-Kit", "details": "ref SelleckChem; read-out: IC50 c-Kit; cited from earlier work"}, "PDGFR-β": {"tested_on": "PDGFR-β", "design": "method as in SelleckChem", "details": "ref SelleckChem; cited from earlier work"}, "Raf1": {"tested_on": "Raf1", "design": "method as in SelleckChem", "details": "ref SelleckChem; cited from earlier work"}, "Tie-2": {"tested_on": "Tie-2", "design": "method as in SelleckChem", "details": "ref SelleckChem; cited from earlier work"}}, "note": "Where two headings read alike, the source gives them in different places.", "data": [{"smiles": "Nc1nccc(Oc2ccc(NC(=O)c3c[nH]cc(-c4ccc(F)cc4)c3=O)cc2F)c1Cl", "note": "[BMS-794833]", "values": [{"measurement": "IC50", "setting": "Flt-3", "result": "< 3", "unit": "nM"}, {"measurement": "IC50", "setting": "VEGFR2", "result": 15, "unit": "nM"}, {"measurement": "IC50", "setting": "Axl", "result": "< 3", "unit": "nM"}, {"measurement": "IC50", "setting": "c-Met; ref SelleckChem, read-out: IC50 c-Met", "result": 1.7, "unit": "nM"}, {"measurement": "IC50", "setting": "Ron", "result": "< 3", "unit": "nM"}]}, {"smiles": "C[C@@H](Oc1cc(-c2cnn(C3CCNCC3)c2)cnc1N)c1c(Cl)ccc(F)c1Cl", "note": "[Crizotinib]", "values": [{"measurement": "PDX xenograft volume", "setting": "USTC-1 PDX; USTC-1, 21 days treatment", "result": "significantly reduced the xenograft volume"}, {"measurement": "Median survival", "setting": "USTC-1 PDX; USTC-1, vehicle 22.5", "result": 27.0, "unit": "days"}, {"measurement": "PDX xenograft volume", "setting": "USTC-0 PDX; USTC-0, 21 days treatment", "result": "significantly reduced the xenograft volume"}, {"measurement": "survival of PDX-bearing mice", "setting": "USTC-0 PDX; USTC-0, single agents vs vehicle, combinations vs OSI-930 or Crizotinib alone", "result": "markedly extended the survival"}, {"measurement": "Median survival", "setting": "USTC-0 PDX; USTC-0, vehicle 25.5", "result": 34.5, "unit": "days"}, {"measurement": "phosphorylated and total proteins of MAPK and PI3K/AKT pathways", "setting": "[1]; BT549, 1 μM", "result": "significantly reduced the level of p-AKT (Ser473)/AKT"}, {"measurement": "phosphorylated and total proteins of MAPK and PI3K/AKT pathways", "setting": "[1]; MDA-MB-231, 1 μM", "result": "significantly inhibited the PI3K/AKT pathway"}, {"measurement": "% Regression: Complete Response (100%)", "setting": "MDA-MB-231 xenografts; MDA-MB-231 xenograft, day 21", "result": 17, "unit": "%"}, {"measurement": "% Regression: Partial Response (>50%)", "setting": "MDA-MB-231 xenografts; MDA-MB-231 xenograft, day 21", "result": 17, "unit": "%"}, {"measurement": "% Regression: Disease Progression", "setting": "MDA-MB-231 xenografts; MDA-MB-231 xenograft, day 21 (xenograft volume >100 mm^3)", "result": 66, "unit": "%"}, {"measurement": "complete regression of xenografts", "setting": "MDA-MB-231 xenografts; day 21, NCK 20 mg/kg q.d., OSI-930 20 mg/kg q.d., Crizotinib 50 mg/kg b.i.w.", "result": 16.67, "unit": "%"}, {"measurement": "lung metastases (bioluminescent signals) vs control", "setting": "4T1-luciferase cells", "result": "significantly abrogated lung metastases"}, {"measurement": "2D foci formation", "setting": "BT549 cells", "result": "significantly attenuated the capacity for foci formation"}, {"measurement": "IC50", "setting": "c-Met; no reference given, read-out: potency on c-MET", "result": "[…]"}, {"measurement": "2D foci formation", "setting": "MDA-MB-231 cells", "result": "significantly attenuated the capacity for foci formation"}, {"measurement": "level of pBADSer99/BAD", "setting": "[2]", "result": "significantly decreased the level of pBADSer99/BAD"}]}, {"smiles": "CCOc1cc2ncc(C#N)c(Nc3ccc(F)c(Cl)c3)c2cc1NC(=O)/C=C/CN(C)C", "note": "[Pelitinib]", "values": [{"measurement": "IC50", "setting": "MEK/ERK", "result": 800, "unit": "nM"}, {"measurement": "IC50", "setting": "ErbB2", "result": 1260, "unit": "nM"}, {"measurement": "IC50", "setting": "Src", "result": 282, "unit": "nM"}]}, {"smiles": "Cc1ccc(C(=O)Nc2ccc(CN3CCN(C)CC3)c(C(F)(F)F)c2)cc1C#Cc1cnc2cccnn12", "note": "[Ponatinib]", "values": [{"measurement": "IC50", "setting": "FGFR1", "result": "[…]"}, {"measurement": "IC50", "setting": "Src", "result": 5.4, "unit": "nM"}]}, {"smiles": "CNC(=O)c1cc(Oc2ccc(NC(=O)Nc3ccc(Cl)c(C(F)(F)F)c3)cc2)ccn1", "note": "[Sorafenib]", "values": [{"measurement": "IC50", "setting": "VEGFR3", "result": "[…]"}, {"measurement": "IC50", "setting": "Flt-3", "result": "[…]"}, {"measurement": "IC50", "setting": "c-Kit", "result": 68, "unit": "nM"}, {"measurement": "IC50", "setting": "PDGFR-β", "result": "[…]"}, {"measurement": "IC50", "setting": "Raf1", "result": 6, "unit": "nM"}]}, {"smiles": "COc1ccc2cc(-c3nc(-c4ccc([S+](C)[O-])cc4)[nH]c3-c3ccncc3)ccc2c1", "note": "(centres unmarked) [Tie2 kinase inhibitor]", "values": [{"measurement": "IC50", "setting": "Tie-2", "result": 0.25, "unit": "nM"}]}]}
